In US8546113B2, “Hydrogen peroxide-forming NADH oxidase and DNA encoding the same” (Keio University, priority 2008, dated 2013):

What was measured:
[1] = tested on: NADH oxidase isolated from Brevibacterium sp.; settings: inhibitor 1 mM, 3 minutes at room temperature; NADH 10 μM; (NH4)2SO4 500 mM; Tris-HCl pH 8.8; not stated whether % inhibition or % relative activity
Experimental: The enzyme solution was added to 100 mM Tris-HCl (pH 8.8). Further, an inhibitor was added thereto to a final concentration of 1 mM, followed by incubation at room temperature for 3 minutes. Then, NADH and (NH4)2SO4 were added thereto so as to result in concentrations of 10 μM and 500 mM, respectively, followed by determination of the absorbance at 340 nm. Accordingly, the reaction rate was determined.

[2] = tested on: NADH oxidase isolated from Brevibacterium sp.; assay: H2O2 formation confirmation and quantification (o-dianisidine/peroxidase, Abs460); type: biochemical, Brevibacterium sp. KU1309; settings: NADH 75, 100 and 150 μM
Experimental: NOX is classified into the H2O by-product type and the H2O2 by-product type. With the use of the assay method shown in FIG. 8A, H2O2 formation confirmation and H2O2 quantification were carried out. First, the reaction was carried out with the use of hydrogen peroxide, o-dianisidine, and peroxidase at known concentrations. The standard curve of [H2O2] vs Abs460 was created. The symbol “♦” denotes each obtained plotted point on the curve in FIG. 8B. […] The reaction was completed after the elapse of a sufficient reaction time. The completion of the reaction was confirmed with the use of an absorptiometer. The obtained reaction solution (50 μl) was added to a 100 mM phosphate buffer (pH 7.0) containing o-dianisidine and peroxidase, followed by absorbance determination. The symbol “□” denotes each obtained plotted point on the curve in FIG. 8B. […] It is understood that the values were identical to the relevant [H2O2] concentrations.

[3] = tested on: NADH oxidase isolated from Brevibacterium sp.; assay: Substrates and activity levels in the presence of cofactors; type: biochemical, Brevibacterium sp. KU1309
Experimental: (§1) Enzyme activity was evaluated by measuring the absorbance at 340 nm, which decreases as a result of oxidization of NADH to NAD^+, with the use of an absorptiometer. A reaction was induced by adding an enzyme solution to a mixture of 0.1 mM NADH, 100 mM Tris-HCL (pH 8.8), and 500 mM ammonium sulfate. Herein, “1 unit” is defined as the amount of an enzyme that allows oxidation of 1μ mole of NADH per minute.

[4] = tested on: NADH oxidase isolated from Brevibacterium sp.; assay: Kinetic analysis of NADH oxidation (Lineweaver-Burk plot, absorbance at 340 nm); type: biochemical, Brevibacterium sp. KU1309; settings: for Km: NOX 0.28 ug/ml
Experimental: as §1
For kinetic analysis, the reaction rate was determined at an NADH concentration of 10 μM to 100 μM. A Lineweaver-Burk plot was created based on the obtained values. The reaction was carried out as described below. A reaction solution (NOX: 0.28 ug/ml; NADH: 10 μM to 100 μM; (NH4)2SO4: 500 mM; and Tris-HCl: 100 mM (pH 8.8)) was introduced into an absorptiometer cell, followed by determination of the absorbance at 340 nm. Accordingly, the reaction rate was determined.

[5] = tested on: NADH oxidase isolated from Brevibacterium sp.; assay: Effects of salts on enzyme activity; type: biochemical, Brevibacterium sp. KU1309
Experimental: Reaction was carried out with the addition of different salts, followed by determination of absorbance at 340 nm. Then, the reaction rate was determined. […] Then, the effects of ammonium salt concentration upon enzyme activity were examined in the manner described below. The reaction was carried out in the presence of ammonium sulfate at a concentration of 0 M to 4.35 M. Thereafter, the relative value of the reaction rate was calculated.

[6] = as substrate, no cofactor added, NADH without cofactor = 100
[7] = NADH 10 μM to 100 μM, (NH4)2SO4 500 mM, Tris-HCl 100 mM (pH 8.8)
[8] = substrate NADH, cofactor added at 1 mM

[Cu+2] [Cu^2+]
activity inhibited (FIG. 6 relative activity values) [1]: 42%

[Ag+] [Ag^+]
activity inhibited (FIG. 6 relative activity values) [1]: 37%

[Zn+2] [Zn^2+]
activity inhibited (FIG. 6 relative activity values) [1]: 39%

reduced nicotinamide adenine dinucleotide [NADH]
hydrogen peroxide formed on oxidization of 1 mol of NADH [2]: 1 mol
Specific activity (%) [3, 6]: 100%
Kcat ([4]; Calculated with a molecular weight of 101.68 kDa): 15.01 s⁻¹
Vmax [4, 7]: 8.86 Unit/mq
Km [4, 7]: 22 µM

Cc1cc2nc3c(=O)[nH]c(=O)nc-3n(C[C@H](O)[C@H](O)[C@H](O)COP(=O)(O)OP(=O)(O)OC[C@H]3O[C@@H](n4cnc5c(N)ncnc54)[C@H](O)[C@@H]3O)c2cc1C [FAD]
activation caused by FAD or FMN [3]: not observed
Specific activity (%) [3, 8]: 101%

NC(=O)C1=CN([C@@H]2O[C@H](COP(=O)(O)OP(=O)(O)OC[C@H]3O[C@@H](n4cnc5c(N)ncnc54)[C@H](OP(=O)(O)O)[C@@H]3O)[C@@H](O)[C@H]2O)C=CC1 [NADPH]
degree of NADPH-oxidizing activity [3]: low
Specific activity (%) [3, 6]: 2%

N.N.O=S(=O)(O)O [ammonium salt, ammonium sulfate]
effect of addition of salt on enzyme activity [5]: increases
ammonium salt concentration ([NH4+]) at maximum activity ([5]; ammonium sulfate 0 M to 4.35 M): 3.0 M

Cc1cc2nc3c(=O)[nH]c(=O)nc-3n(C[C@H](O)[C@H](O)[C@H](O)COP(=O)(O)O)c2cc1C [FMN]
activation caused by FAD or FMN [3]: not observed
Specific activity (%) [3, 8]: 104%

B1: enzyme of the present invention: hydrogen peroxide-forming NADH oxidase from Brevibacterium sp. KU1309, homodimer, amino acid sequence of SEQ ID NO: 18 (protein, listed as Brevibacterium sp.)
chain: VSDELTYDLVVLGGGTGGYAAALRAAELDMKVALIERDKVGGTCLHRGCVPTKALLHAAEVAETAKNSETFGIEAELQGIDIAKVLEYKDGVITRNYKGLQGLVKARGIDTYFGTGKLVGKDTVEVTGEDGNHTVKGTNVLLSTGSTSKTIGLEVTDRVITSTEALQLDKVPSSAIVLGGGVIGVEFASVWNSFGAEVTIVEGLKHLVANEDETISKNLERAFKKRKIKFKLGVMFKGVEETADGVKVTLEDGSTLEAEYLLVAVGRGPVTEGFGFEEQGIPMDRGFVLASERLHTGVGNIYACGDIVPGLQLAHRAFGQGIFIAEEIAGLNPAPVVESGIPRVTYCEPEIFSVGLSSAQAEEKYGKDQVESLEYNLGGNGKSVILNTTGLIKVIREKDGPVVGVHGIGARLSEQAGEAQLIVNWEAFPEEVAQLIHAHPTQNEALGEAHLALAGKPLHFHS
modifications: homodimer
hydrogen peroxide formed on oxidization of 1 mol of NADH [2]: 1 mol
Km [4, 7]: 22 µM
